# Assay results from patent US12208092B2, “Compositions and methods for administering paltusotine to patients with hepatic impairment” (CRINETICS PHARMACEUTICALS, INC., priority 2023, dated 2025).
# Experiment: Phase 1 hepatic impairment study, safety (TEAEs) after single oral 20 mg tablet
# [1] = mild hepatic impairment (N = 8)
# [2] = moderate hepatic impairment (N = 8)
# [3] = normal hepatic function (N = 14)
# Protocol: The secondary objective of the study was to assess the safety and tolerability of a single dose of paltusotine in subjects with varying degrees of hepatic impairment.
# Safety and tolerability were assessed by the following endpoints: reported adverse events (AEs), clinical laboratory test results (hematology, coagulation, serum chemistry, and urinalysis), vital sign measurements, and 12-lead electrocardiogram results
# All 36 subjects who were enrolled in the study received all planned single doses of paltusotine 20 mg (1×20 mg tablet) and were included in the safety and PK analysis populations.
smiles,measurement,setting,value
"N#Cc1cccc(-c2ccc3ncc(-c4cc(F)cc(F)c4)c(N4CCC(N)CC4)c3c2)c1O [paltusotine, 3-[4-(4-amino-1-piperidyl)-3-(3,5-difluorophenyl)-6-quinolyl]-2-hydroxybenzonitrile]",discontinuation due to a TEAE,all 36 subjects,No subjects discontinued
same,safety and tolerability,hepatic impairment and normal subjects,safe and generally well tolerated
same,"Any SAEs, number of occurrences",[1],1
same,"Any TEAE, number of occurrences",[1],3
same,"Related TEAE Abdominal discomfort, subjects n (%)",[1],0
same,"Related TEAE Diarrhea, number of occurrences",[1],1
same,"Related TEAE Diarrhea, subjects n (%)",[1],1 (12.5%)
same,"Related TEAE Epigastric discomfort, subjects n (%)",[1],0
same,"Related TEAE Fatigue, subjects n (%)",[1],0
same,"Related TEAE Haematuria, number of occurrences",[1],1
same,"Related TEAE Haematuria, subjects n (%)",[1],1 (12.5%)
same,"Related TEAE Headache, subjects n (%)",[1],0
same,"Related TEAE Neutropenia, subjects n (%)",[1],0
same,"Related TEAE Pain, subjects n (%)",[1],0
same,"Related TEAE Paraesthesia, subjects n (%)",[1],0
same,"SAEs Not related to study drug (strongest relationship), subjects n (%)",[1],1 (12.5%)
same,"SAEs Not related to study drug, number of occurrences",[1],1
same,"SAEs Related to study drug (strongest relationship), subjects",[1],0
same,"Subjects reporting any SAEs, subjects n (%)",[1],1 (12.5%)
same,"Subjects reporting any TEAE, subjects n (%)",[1],2 (25.0%)
same,"TEAE Abdominal discomfort, subjects n (%)",[1],0
same,"TEAE COVID-19, subjects n (%)",[1],0
same,"TEAE Death, number of occurrences",[1],1
same,"TEAE Diarrhea, number of occurrences",[1],1
same,"TEAE Diarrhea, subjects n (%)",[1],1 (12.5%)
same,"TEAE Epigastric discomfort, subjects n (%)",[1],0
same,"TEAE Fatigue, subjects n (%)",[1],0
same,"TEAE Haematuria, number of occurrences",[1],1
same,"TEAE Haematuria, subjects n (%)",[1],1 (12.5%)
same,"TEAE Headache, subjects n (%)",[1],0
same,"TEAE Neutropenia, subjects n (%)",[1],0
same,"TEAE Pain, subjects n (%)",[1],0
same,"TEAE Paraesthesia, subjects n (%)",[1],0
same,"TEAE SOC Blood and lymphatic system disorders, subjects n (%)",[1],0
same,"TEAE SOC Gastrointestinal disorders, number of occurrences",[1],1
same,"TEAE SOC Gastrointestinal disorders, subjects n (%)",[1],1 (12.5%)
same,"TEAE SOC General disorders and administration site conditions, number of occurrences",[1],1
same,"TEAE SOC General disorders and administration site conditions, subjects n (%)",[1],1 (12.5%)
same,"TEAE SOC Infections and infestations, subjects n (%)",[1],0
same,"TEAE SOC Nervous system disorders, subjects n (%)",[1],0
same,"TEAE SOC Renal and urinary disorders, number of occurrences",[1],1
same,"TEAE SOC Renal and urinary disorders, subjects n (%)",[1],1 (12.5%)
same,"TEAEs Not Related to study drug (strongest relationship), subjects n (%)",[1],0
same,"TEAEs Related to study drug (strongest relationship), subjects n (%)",[1],2 (25.0%)
same,"TEAEs Related to study drug, number of occurrences",[1],2
same,"TEAEs by maximum severity: Mild, number of occurrences",[1],2
same,"TEAEs by maximum severity: Mild, subjects n (%)",[1],1 (12.5%)
same,"TEAEs by maximum severity: Moderate, subjects n (%)",[1],0
same,"TEAEs by maximum severity: Severe, number of occurrences",[1],1
same,"TEAEs by maximum severity: Severe, subjects n (%)",[1],1 (12.5%)
same,Total number of SAEs reported,[1],1
same,Total number of TEAEs reported,[1],3
same,"Any TEAE, number of occurrences",[2],4
same,"Related TEAE Abdominal discomfort, subjects n (%)",[2],0
same,"Related TEAE Diarrhea, number of occurrences",[2],1
same,"Related TEAE Diarrhea, subjects n (%)",[2],1 (12.5%)
same,"Related TEAE Epigastric discomfort, subjects n (%)",[2],0
same,"Related TEAE Fatigue, number of occurrences",[2],1
same,"Related TEAE Fatigue, subjects n (%)",[2],1 (12.5%)
same,"Related TEAE Haematuria, subjects n (%)",[2],0
same,"Related TEAE Headache, number of occurrences",[2],1
same,"Related TEAE Headache, subjects n (%)",[2],1 (12.5%)
same,"Related TEAE Neutropenia, subjects n (%)",[2],0
same,"Related TEAE Pain, number of occurrences",[2],1
same,"Related TEAE Pain, subjects n (%)",[2],1 (12.5%)
same,"Related TEAE Paraesthesia, subjects n (%)",[2],0
same,"SAEs Not related to study drug (strongest relationship), subjects n (%)",[2],0
same,"SAEs Related to study drug (strongest relationship), subjects",[2],0
same,"Subjects reporting any SAEs, subjects n (%)",[2],0
same,"Subjects reporting any TEAE, subjects n (%)",[2],2 (25.0%)
same,"TEAE Abdominal discomfort, subjects n (%)",[2],0
same,"TEAE COVID-19, subjects n (%)",[2],0
same,"TEAE Death, subjects n (%)",[2],0
same,"TEAE Diarrhea, number of occurrences",[2],1
same,"TEAE Diarrhea, subjects n (%)",[2],1 (12.5%)
same,"TEAE Epigastric discomfort, subjects n (%)",[2],0
same,"TEAE Fatigue, number of occurrences",[2],1
same,"TEAE Fatigue, subjects n (%)",[2],1 (12.5%)
same,"TEAE Haematuria, subjects n (%)",[2],0
same,"TEAE Headache, number of occurrences",[2],1
same,"TEAE Headache, subjects n (%)",[2],1 (12.5%)
same,"TEAE Neutropenia, subjects n (%)",[2],0
same,"TEAE Pain, number of occurrences",[2],1
same,"TEAE Pain, subjects n (%)",[2],1 (12.5%)
same,"TEAE Paraesthesia, subjects n (%)",[2],0
same,"TEAE SOC Blood and lymphatic system disorders, subjects n (%)",[2],0
same,"TEAE SOC Gastrointestinal disorders, number of occurrences",[2],1
same,"TEAE SOC Gastrointestinal disorders, subjects n (%)",[2],1 (12.5%)
same,"TEAE SOC General disorders and administration site conditions, number of occurrences",[2],2
same,"TEAE SOC General disorders and administration site conditions, subjects n (%)",[2],1 (12.5%)
same,"TEAE SOC Infections and infestations, subjects n (%)",[2],0
same,"TEAE SOC Nervous system disorders, number of occurrences",[2],1
same,"TEAE SOC Nervous system disorders, subjects n (%)",[2],1 (12.5%)
same,"TEAE SOC Renal and urinary disorders, subjects n (%)",[2],0
same,"TEAEs Not Related to study drug (strongest relationship), subjects n (%)",[2],0
same,"TEAEs Related to study drug (strongest relationship), subjects n (%)",[2],2 (25.0%)
same,"TEAEs Related to study drug, number of occurrences",[2],4
same,"TEAEs by maximum severity: Mild, number of occurrences",[2],3
same,"TEAEs by maximum severity: Mild, subjects n (%)",[2],1 (12.5%)
same,"TEAEs by maximum severity: Moderate, number of occurrences",[2],1
same,"TEAEs by maximum severity: Moderate, subjects n (%)",[2],1 (12.5%)
same,"TEAEs by maximum severity: Severe, subjects n (%)",[2],0
same,Total number of SAEs reported,[2],0
same,Total number of TEAEs reported,[2],4
same,"Any TEAE, number of occurrences",[3],6
same,"Related TEAE Abdominal discomfort, number of occurrences",[3],1
same,"Related TEAE Abdominal discomfort, subjects n (%)",[3],1 (7.1%)
same,"Related TEAE Diarrhea, number of occurrences",[3],2
same,"Related TEAE Diarrhea, subjects n (%)",[3],2 (14.3%)
same,"Related TEAE Epigastric discomfort, number of occurrences",[3],1
same,"Related TEAE Epigastric discomfort, subjects n (%)",[3],1 (7.1%)
same,"Related TEAE Fatigue, subjects n (%)",[3],0
same,"Related TEAE Haematuria, subjects n (%)",[3],0
same,"Related TEAE Headache, subjects n (%)",[3],0
same,"Related TEAE Neutropenia, subjects n (%)",[3],0
same,"Related TEAE Pain, subjects n (%)",[3],0
same,"Related TEAE Paraesthesia, number of occurrences",[3],1
same,"Related TEAE Paraesthesia, subjects n (%)",[3],1 (7.1%)
same,"SAEs Not related to study drug (strongest relationship), subjects n (%)",[3],0
same,"SAEs Related to study drug (strongest relationship), subjects",[3],0
same,"Subjects reporting any SAEs, subjects n (%)",[3],0
same,"Subjects reporting any TEAE, subjects n (%)",[3],4 (28.6%)
same,"TEAE Abdominal discomfort, number of occurrences",[3],1
same,"TEAE Abdominal discomfort, subjects n (%)",[3],1 (7.1%)
same,"TEAE COVID-19, subjects n (%)",[3],0
same,"TEAE Death, subjects n (%)",[3],0
same,"TEAE Diarrhea, number of occurrences",[3],3
same,"TEAE Diarrhea, subjects n (%)",[3],3 (21.4%)
same,"TEAE Epigastric discomfort, number of occurrences",[3],1
same,"TEAE Epigastric discomfort, subjects n (%)",[3],1 (7.1%)
same,"TEAE Fatigue, subjects n (%)",[3],0
same,"TEAE Haematuria, subjects n (%)",[3],0
same,"TEAE Headache, subjects n (%)",[3],0
same,"TEAE Neutropenia, subjects n (%)",[3],0
same,"TEAE Pain, subjects n (%)",[3],0
same,"TEAE Paraesthesia, number of occurrences",[3],1
same,"TEAE Paraesthesia, subjects n (%)",[3],1 (7.1%)
same,"TEAE SOC Blood and lymphatic system disorders, subjects n (%)",[3],0
